Assay results published in patent publication US11530196B2, “Pyrimidine compound acting on EGFR and ERBB2” (CHINA RESOURCES PHARMACEUTICAL HOLDINGS COMPANY LIMITED, priority 2019, dated 2022).
Where “and” joins values, the source holds several entries; their conditions need not be identical. Equal entries are not always repeated.

How the values were obtained:
[1] = test system: Ba/F3 (EGFR-D770_N771insSVD) subcutaneous allograft tumor; test: Ba/F3 EGFR D770_N771 ins SVD subcutaneous allograft tumor model; type: in vivo, Nude mouse (BALB/c Nude)
Description: Ba/F3 (EGFR-D770_N771insSVD) cells were artificially constructed cell lines with EGFR-D770_N771insSVD insertion mutation using mouse B cells. The CDX model established by this cell line was used to evaluate the inhibitory effect of preferred compounds on Exon 20 EGFR-D770_N771insSVD insertion mutation in animals.
Nude mouse (BALB/c Nude), Ba/F3 (EGFR-D770_N771insSVD) cell line
1. Cell culture: cells were cultured in vitro in monolayer, culture conditions were RPMI-1640 (cell culture medium) with 10% fetal bovine serum, 100 U/mL penicillin and 100 µg/mL streptomycin, the cells were cultured at a 37° C., 5% CO2 incubator. Conventional digestion with trypsin-EDTA was performed twice a week for passage. When the saturation of Ba/F3 (EGFR-D770_N771insSVD) cell was 80%-90%, and the number reached the requirement, the cells were harvested and counted. The density was 5×10^6 cells.
2. Cell inoculation: 0.2 mL (containing 5×10^6 cells) of Ba/F3 (EGFR-D770_N771insSVD) cell suspension (PBS:Matrigel=1:1) was inoculated subcutaneously on the right back of each mouse, for a total of 64 mice. On the 7th day after inoculation, when the average tumor volume reached 133 mm^3, the randomized stratified grouping method was used to start the grouping administration according to the tumor volume and animal weight. PBS was phosphate buffer and Matrigel was matrix.
3. Administration: The dose was 0-7 days: 10 mg/kg, 8-21 days: 40 mg/kg; oral administration; administration frequency: once a day×3 weeks.
Tumor diameters were measured with vernier calipers twice a week. The calculation formula of tumor volume was: V=0.5a×b^2, wherein a and b represented the long and short diameters of the tumor, respectively.
The antitumor efficacy of the compounds was evaluated by TGI (%) or relative tumor proliferation rate T/C (%).
Relative tumor proliferation rate T/C (%)=TRTV/CRTV×100% (TRTV: mean RTV in the treatment group; CRTV: mean RTV in the solvent control group).
The relative tumor volume (RTV) was calculated according to the results of tumor measurement. The calculation formula was RTV=Vt/V0, wherein V0 was the tumor volume measured at the time of group administration (i.e., D0), and Vt was the tumor volume corresponding to a certain measurement. TRTV and CRTV were taken on the same day.
TGI (%), reflecting the tumor growth inhibition rate. TGI (%)=[(1−(average tumor volume at the end of administration of a treatment group−average tumor volume at the beginning of administration of this treatment group))/(average tumor volume at the end of treatment in the solvent control group−average tumor volume at the beginning of treatment of the solvent control group)]×100%.

[2] = Pharmacokinetic study, single intravenous and oral administration in mice; type: in vivo; conditions: mouse, plasma
Description: The purpose of this experiment was to investigate the pharmacokinetics (PK) of the compounds in different species after single intravenous and single oral administration of the test compounds.
After intravenous or oral administration, blood samples were collected from the animals, and the actual time of blood collection was recorded. After the blood samples were collected, the samples were immediately transferred to the labelled centrifuge tube containing K2-EDTA, and then centrifuged to obtain plasma. Plasma was transferred to pre-cooled centrifuge tubes, quick-frozen in dry ice and stored in an ultra-low temperature refrigerator at −70±10° C. until LC-MS/MS analysis was performed.
The plasma drug concentration data of the compounds were processed using pharmacokinetic software with a non-compartmental model. The peak concentration (Cmax) and time to peak (Tmax), as well as the quantifiable end time were obtained directly from the plasma concentration-time curve. The following pharmacokinetic parameters were calculated using the log-linear trapezoidal method: half-life (T1/2), apparent volume of distribution (Vdss), and clearance (Cl), area under the time-plasma concentration curve from point 0 to the end time point (AUC0-last), and initial concentration (C0).

[3] = target: Ba/F3 EGFR-D770_N771insSVD (Homo sapiens, UniProt P00533, DUP768-770, cells depend on it); test: Anti-proliferation against Ba/F3 exon 20 insertion mutant cells (SVD); type: cell-based, mouse; conditions: CTG, 72 hours, read-out: Mutant cells IC50 (anti-proliferation)
Description: RPMI1640 medium was purchased from Hyclone, FBS fetal bovine serum was purchased from GBICO, and trypsin-EDTA were both purchased from Giboco. DPBS was purchased from Corning, penicillin/streptomycin solution was purchased from Hyclone, and Cell-Titer Glo reagent was purchased from Promega (Cat. No. G7572). Ba/F3 EGFR-D770_N771insSVD, Ba/F3 EGFR-H773_V774insNPH, Ba/F3 EGFR-V769_D770insASV, BaF3 ERBB2 A775_G776 ins YVMA, the cell lines were constructed by Beijing Kang Yuan Bochuang Biotechnology Co., Ltd. Plate reading instrument: Envision (PerkinElmer).
Cells in logarithmic growth phase were harvested and cell counts were performed using a […]. Cell viability was detected by the Taipan Blue rejection assay. The cell concentration was adjusted; the cell suspension was added to a 96-well plate separately. Cells in 96-well plates were incubated overnight at 37° C., 5% CO2, and 95% humidity. To prepare the drug solution, 10 μL of drug solution was added to each well of the 96-well plate inoculated with cells, and three replicate wells were set up for each drug concentration. The cells in the 96-well plates added with drugs were placed at 37° C., 5% CO2, 95% humidity and continued to incubate for 72 hours, after which CTG analysis was performed and the cells were vibrated on an orbital shaker to lyse the cells. The cell plate was placed at room temperature to stabilize the cold light signal, and the cold light values were read. The data were analyzed using GraphPad Prism 7.0 software, and a nonlinear S-curve regression was used to fit the data to derive the dose-effect curve from which the IC50 values were calculated.
The IC50 of anti-proliferation activity against Ba/F3 Exon20 insertion mutant cells of the compounds of the present disclosure is shown in Table 5.
Ba/F3 exon 20 insertion mutant cells are cell lines with SVD, NPH, ASV, and YVMA insertion mutations artificially constructed using mouse B cells, and it can be seen from Table 5 that the compounds of the present disclosure have better cellular anti-proliferation activity against the […] exon 20 insertion mutations such as SVD, NPH, ASV, and YVMA, and also show better anti-proliferation activity against common exon 20 insertion mutations such as SVD mutation.

[4] = Day 14, oral once a day, 0-7 days 10 mg/kg, 8-21 days 40 mg/kg

Sequence of Ba/F3 EGFR-D770_N771insSVD (P00533 with tags, fused parts or gaps DUP768-770): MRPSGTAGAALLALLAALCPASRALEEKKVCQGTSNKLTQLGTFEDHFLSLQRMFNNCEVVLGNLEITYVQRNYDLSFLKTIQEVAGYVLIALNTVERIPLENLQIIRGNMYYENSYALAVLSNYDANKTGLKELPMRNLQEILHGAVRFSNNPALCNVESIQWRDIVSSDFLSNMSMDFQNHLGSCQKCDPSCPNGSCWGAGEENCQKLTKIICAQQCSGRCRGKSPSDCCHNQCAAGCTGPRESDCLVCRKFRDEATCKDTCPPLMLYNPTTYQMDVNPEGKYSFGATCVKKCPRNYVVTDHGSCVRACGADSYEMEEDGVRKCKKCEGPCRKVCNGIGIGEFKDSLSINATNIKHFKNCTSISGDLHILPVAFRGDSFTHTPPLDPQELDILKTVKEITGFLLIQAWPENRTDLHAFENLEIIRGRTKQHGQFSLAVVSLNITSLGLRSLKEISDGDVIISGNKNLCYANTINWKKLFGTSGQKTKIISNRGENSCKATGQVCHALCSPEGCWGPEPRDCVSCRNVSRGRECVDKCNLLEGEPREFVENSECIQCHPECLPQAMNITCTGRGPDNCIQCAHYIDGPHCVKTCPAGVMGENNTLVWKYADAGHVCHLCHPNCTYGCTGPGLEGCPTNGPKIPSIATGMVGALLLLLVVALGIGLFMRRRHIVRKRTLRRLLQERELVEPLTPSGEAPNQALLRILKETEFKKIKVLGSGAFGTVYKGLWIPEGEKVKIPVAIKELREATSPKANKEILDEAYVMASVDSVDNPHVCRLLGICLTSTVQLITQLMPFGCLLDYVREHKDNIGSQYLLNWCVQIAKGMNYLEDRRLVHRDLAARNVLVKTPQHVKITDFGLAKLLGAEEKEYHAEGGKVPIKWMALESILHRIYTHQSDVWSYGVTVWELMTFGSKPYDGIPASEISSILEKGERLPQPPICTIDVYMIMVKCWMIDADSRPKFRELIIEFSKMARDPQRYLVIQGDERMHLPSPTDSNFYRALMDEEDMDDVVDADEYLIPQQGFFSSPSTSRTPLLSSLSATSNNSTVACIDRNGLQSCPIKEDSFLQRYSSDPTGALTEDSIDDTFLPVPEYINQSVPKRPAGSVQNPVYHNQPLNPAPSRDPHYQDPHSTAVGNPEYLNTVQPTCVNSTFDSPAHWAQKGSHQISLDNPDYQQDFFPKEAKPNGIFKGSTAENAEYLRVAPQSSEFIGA

clearance ([2]; intravenous injection 2 mg/kg): 57.7 mL/min/kg
half-life ([2]; intravenous injection 2 mg/kg): 1.76 h
AUC ([2]; intravenous injection 2 mg/kg, read-out: Exposure of AUC): 0.884 µM·h
Vd ([2]; intravenous injection 2 mg/kg, read-out: Vdss): 6.95 L/kg
Cmax ([2]; oral 10 mg/kg): 300 nM
Tmax ([2]; oral 10 mg/kg): 2 h
bioavailability ([2]; oral 10 mg/kg): 22.1%
AUC(0-t) ([2]; oral 10 mg/kg, read-out: Exposure of AUC0-last): 1.42 µM·h
GI50 [3]: 27 nM and 24 nM
Structure (SMILES): C=CC(=O)Nc1cc(Nc2ncc(C(=O)OC(C)C)c(-c3cn(OC)c4ccccc34)n2)c(OC)cc1N(C)CCN(C)C.CS(=O)(=O)O [Compound 1]
Tumor volume (Day 0) ([1]; Day 0 (grouping), mean ± standard error, n = 6): 133.2 ± 8.2 mm^3
RTV [1, 4]: 1.9
T/C [1, 4]: 14.9%
TGI [1, 4]: 92.1%
Tumor volume (Day 14) [1, 4]: 259.1 ± 35.2 mm^3
